# Source: US11992545B2, “Aqueous cosmetic compositions containing pelargonic acid esters” (Novamont S.p.A., priority 2015, dated 2024)
# Assays:
# [1] = Pigments dispersion: wet point and flow point; type: physicochemical; conditions: for Fp (flow point), amount of ester oil / Wp (wet point), amount of ester oil: grams per 100 g of pigment
# Excerpt: Black Iron Oxide particles (C177499, commercially available as YPC335200 from Yipin) were dispersed in each of the ester oils of the present invention and in ester oil commonly used as cosmetic ingredients. Each sample of powder particles was wetted by the dropwise addition of one ester oil and then vigorously blended using a spatula until the wet point and the flow point were reached.
# The wet point is defined as the minimum volume of dispersant solution to produce a soft coherent mass; the further minimum addition of dispersant solution to produce flow or falling off of the homogeneous mass from the vertical blade of a horizontally held spatula determines the flow point.
# The amounts of dispersant solution (i.e. ester oil) needed to reach the wet point (Wp) and the flow point (Fp) were recorded and reported in the table below, expressed in grams per 100 g of pigment.
# [2] = UV filters dispersion (dispersibility of solid UV filter in ester oils); type: physicochemical; design: key to Filters dispersion t0, 1% / Filters dispersion t0, 10% / Filters dispersion t24, 1% / Filters dispersion t24, 10%: D=homogeneous dispersion; S=sediment deposit; conditions: for Filters dispersion t0, 1%: 1% TiO2, 0 hours at 25° C.; for Filters dispersion t24, 1%: 1% TiO2, 24 hours at 25° C.; for Filters dispersion t0, 10%: 10% TiO2, 0 hours at 25° C.; for Filters dispersion t24, 10%: 10% TiO2, 24 hours at 25° C.; for dispersion of Titania compared with reference solvents: in words
# Experimental: The dispersibility of a solid UV filter in different ester oils was tested using Titania (TiO2, commercially available as Titanio Biossido Anatasio from A.C.E.F.). Various ratios of filter/ester (1% and 10% TiO2) were prepared under stirring at 70° C. for 30 minutes. The dispersions were then observed after a storage period of 0 hours (t0) and 24 hours (t24) at ambient temperature (25° C.) to check for the formation of any sediment deposit. Results for each ester are shown in the table below (D=homogeneous dispersion; S=sediment deposit).
less solvent required in the final composition [1],"Fp (flow point), amount of ester oil [1] [g]","Wp (wet point), amount of ester oil [1] [g]",dispersion properties compared with commonly used cosmetic ingredients ([1]; in words),"Filters dispersion t0, 1% [2]","Filters dispersion t24, 1% [2]","Filters dispersion t0, 10% [2]","Filters dispersion t24, 10% [2]",dispersion of Titania compared with reference solvents [2],Compound
about 30%,100.00,60.00,even better,D,D,D,S/D,even better,CCCCCCCCC(=O)OCC(COC(=O)CCCCCCCC)OC(=O)CCCCCCCC [Glycerol tripelargonate]
,132.00,62.00,,D,D,D,D,even better,CCCCCCCCC(=O)OCC(COC(=O)CCCCCCCC)(COC(=O)CCCCCCCC)COC(=O)CCCCCCCC [Pentaerythritol tetrapelargonate]
,145.00,50.00,,D,S,D,S,,"CC(C)CCCCCCOC(=O)CCCCCC(C)C [Isononyl Isononanoate, reference compound]"
,166.00,61.00,,D,S/D,D,S/D,,CCCCCCCCC(=O)OCC(C)(C)COC(=O)CCCCCCCC [Neopentyl glycol dipelargonate]
